This note sets out measurements from PubChem BioAssay AID743336 (Broad Institute, 2014).

Results filed as inconclusive are left out.

The test deals with C2C12 myotubes + simvastatin, ATP luminescence, 48 h. The test is described as follows: suppressors of statin-induced myotube ATP loss, dose response, cell-based, differentiated C2C12, luminescence, dry powder (AID 743336).

Turning to `C[C@H]1CN([C@@H](C)CO)C(=O)Cc2cc(NC(=O)CCCCCC(=O)Nc3ccccc3N)ccc2O[C@H]1CN(C)Cc1ccccc1`, the AC40 was 13.8 µM. Then `C[C@@H]1CN([C@H](C)CO)C(=O)c2cccc(NC(=O)Nc3ccc4c(c3)OCO4)c2O[C@H]1CN(C)Cc1ccc(C(=O)Nc2ccccc2N)cc1`, with 14.7 µM; and `C[C@H]1CN([C@@H](C)CO)S(=O)(=O)c2ccc(C#Cc3ccc(F)cc3)cc2O[C@@H]1CN(C)S(=O)(=O)c1cn(C)cn1`, with 18.9 µM.

On to `COc1ccc(S(=O)(=O)Nc2cccc3c2O[C@H](CN(C)C(=O)Nc2ccc(F)cc2)[C@H](C)CN([C@@H](C)CO)C3=O)cc1`, for which the AC40 was 14.5 µM. On to `Cc1noc(C)c1S(=O)(=O)Nc1ccc2c(c1)CC(=O)N([C@H](C)CO)C[C@H](C)[C@@H](CN(C)Cc1ccc(C(F)(F)F)cc1)O2`, for which the AC40 is 16 µM.

For `C[C@@H]1CN([C@H](C)CO)C(=O)Cc2cc(NS(=O)(=O)c3ccc(Cl)cc3)ccc2O[C@H]1CN(C)Cc1ccccc1`, the AC40 is 15.3 µM.

On to `N#C[C@@H]1[C@@H](c2ccc(C#CC3CCCC3)cc2)[C@H](CO)N1S(=O)(=O)c1ccccc1`, for which the AC40 was 20 µM.
